Patent publication US10723766B2, “Derivatives of gamma-amanitin” (Heidelberg Pharma Research GmbH, priority 2015, dated 2020)

Assays:
SKOV3 cells = assay: viability of SKOV3 cells treated with amatoxins (FIG. 3); format: cell-based
[1] = Zanotti et al., 1989; cited from earlier work
RNA-polymerase II = RNA-polymerase II (Homo sapiens, UniProt P24928); conditions: not covalently bound, very tight complex; read-out: KD of complex between amanitin and RNA-polymerase II; cited from earlier work

With `CC[C@H](C)[C@@H]1NC(=O)CNC(=O)C2Cc3c([nH]c4cc(O)ccc34)[S@+]([O-])CC(NC(=O)CNC1=O)C(=O)N[C@@H](CC(N)=O)C(=O)N1CC(O)C[C@H]1C(=O)N[C@@H]([C@@H](C)[C@H](C)O)C(=O)N2` (stereo partly drawn) [γ-amanitin (4), γ-amanitin] as the compound, how does the EC50 (SKOV3 cells) read?
Its EC50 is 270 nM.

For “S-deoxo-γ(R)-hydroxy-isoleucin-amaninamide”, which biological activity [1] is on record?
The biological activity was “biologically inactive”.

With amanitin as the compound, how does the Kd (RNA-polymerase II) read?
Its Kd is 3 nM.
